Experiments:
KBalb cells [1] = assay: MTT cell proliferation assay, KBalb; format: cell-based, mouse; details: KBalb (mutated p21Ras), 48 h, inhibitor concentration as in Table 3
Method: (§1) FIGS. 1A-1C show effects of different PKC isoform inhibitors on proliferation of mouse fibroblast cells and human pancreatic cells. Cells were grown to 80% confluence in 96-well plates, then treated with the inhibitors at the concentrations indicated in Table I. The corresponding solvents with equivalent volume were used as vehicle controls. After 48 h treatment, cell proliferation was evaluated by MTT assay. Results are presented as the means ±SD. Statistical significance was determined using a paired Student's t-test, and p-values ≦0.05 were considered significant. […] Nuclear-free lysates containing a total of 400 μg protein from each indicated cell type were used for analysis of Ras activity by Raf-RBD pull down.
(§2) All inhibitors were dissolved in dimethyl sulfoxide for use, and their effects were measured relative to dimethyl sulfoxide (vehicle)-treated controls.
(§3) Cell Culture and Treatment. NIH/3T3 and Balb cell lines were obtained from ATCC (American Type Culture Collection, Rockville, Md.). NIH/3T3-Ras cells were produced by stable transfection of v-Harvey ras, and selected and maintained in 0.5 mg/ml of Geneticin (Gibco BRL, Gaithersburg, Md.). Ki-v-ras-Balb (KBalb) cells were produced by stable infection of Balb with retroviral vector stocks containing v-Kirsten ras, and were selected and maintained with Geneticin. The human pancreatic tumor lines Hs 766s, BxPC-3 and MIA PaCa-2, were obtained from ATCC. All cell lines were maintained in Dulbecco Modified Eagle medium (DMEM) (Gibco BRL) supplemented with 2 mM 1-glutamine, 100 U/ml of penicillin, and 100 μg/ml of streptomycin (Gibco BRL). […] Cell proliferation was assessed using an MTT [3-(4,5-dimethylthiazol-2-yl)-2,5-diphenyltetrazolium bromide] assay (Roche, Mannheim, Germany). […] The optical densities were quantified at a test wavelength of 550 nm and a reference wavelength of 630 nm on a multiwell spectrophotometer. siRNA Knockdown of PKCδ. siRNA duplexes (siRNAs) were obtained from Qiagen (Valencia, Calif.). […]

MIA PaCa-2 cells = assay: MTT cell proliferation assay, MIA PaCa-2; format: cell-based, human; details: MIA PaCa-2 (mutated p21Ras), 48 h, inhibitor concentration as in Table 3
Method: as §1, §2, §3

NIH/3T3 cells = assay: Apoptotic (hypodiploid) fraction by propidium iodide flow cytometry, NIH/3T3 cells expressing Ras effectors or effector mutants; format: cell-based, mouse
Method: (§4) FIGS. 4A-4D show activation of apoptosis by individual p21^Ras-effector pathways. […] Cells were fixed and stained with propidium iodide, and the apoptotic (hypodiploid) fractions were evaluated by PI staining and flow cytometric analysis using the FL2-H channel. Cells transfected with the empty pSG5 vector served as negative controls. […] NIH/3T3 cells were pre-treated for 30 minutes with Ly294002 (10 μM) before rottlerin (20 μM) was added. The apoptotic (hypodiploid) fractions were evaluated 60 h later. […] The apoptotic (hypodiploid) fractions were evaluated 60 h later. Cells were fixed and stained with propidium iodide. DNA fragmentation was analyzed by flow cytometry using the FL2-H channel.
Cell Culture and Treatment. NIH/3T3 and Balb cell lines were obtained from ATCC (American Type Culture Collection, Rockville, Md.). NIH/3T3-Ras cells were produced by stable transfection of v-Harvey ras, and selected and maintained in 0.5 mg/ml of Geneticin (Gibco BRL, Gaithersburg, Md.). Ki-v-ras-Balb (KBalb) cells were produced by stable infection of Balb with retroviral vector stocks containing v-Kirsten ras, and were selected and maintained with Geneticin. The human pancreatic tumor lines Hs 766s, BxPC-3 and MIA PaCa-2, were obtained from ATCC. All cell lines were maintained in Dulbecco Modified Eagle medium (DMEM) (Gibco BRL) supplemented with 2 mM 1-glutamine, 100 U/ml of penicillin, and 100 μg/ml of streptomycin (Gibco BRL). Media was additionally supplemented with 10% DCS (NIH/3T3, NIH/3T3-Ha-v-Ras, Balb/3T3, Ki-v-ras-Balb, and Balb-myc), or 10% FBS (BxPC-3, MIA PaCa-2). Cells were cultured at 37° C. and 5% CO2. Cell Proliferation Assay. Cell proliferation was assessed using an MTT [3-(4,5-dimethylthiazol-2-yl)-2,5-diphenyltetrazolium bromide] assay (Roche, Mannheim, Germany). […] The optical densities were quantified at a test wavelength of 550 nm and a reference wavelength of 630 nm on a multiwell spectrophotometer. siRNA Knockdown of PKCδ. siRNA duplexes (siRNAs) were obtained from Qiagen (Valencia, Calif.). […] PKCδ protein levels were determined by immunoblot analysis. […] PKCδ activity was measured with an assay kit (Upstate Cell Signaling). […] Immunocomplexes were washed three times with the kinase buffer (20 mM Tris-HCl, 10 mM MgCl2, pH 7.5) and then incubated with a PKC-specific peptide substrate, [γ-^33P]ATP, and inhibitors of cAMP-dependent kinase and calmodulin kinase for 10 min at 30° C. ^33P incorporated into the substrate was separated from residual ^33P using p81 filters and subsequently quantified by scintillation counting. β-actin antibody was used as negative control in immunoprecipitations. p21^Ras Activity Assays. […]

KBalb cells [2] = assay: Apoptotic (hypodiploid) fraction by propidium iodide flow cytometry, KBalb; format: cell-based, mouse; details: 60 h
Method: as §4
Cell Culture and Treatment. NIH/3T3 and Balb cell lines were obtained from ATCC (American Type Culture Collection, Rockville, Md.). […] Cell proliferation was assessed using an MTT [3-(4,5-dimethylthiazol-2-yl)-2,5-diphenyltetrazolium bromide] assay (Roche, Mannheim, Germany). […] The optical densities were quantified at a test wavelength of 550 nm and a reference wavelength of 630 nm on a multiwell spectrophotometer. siRNA Knockdown of PKCδ. siRNA duplexes (siRNAs) were obtained from Qiagen (Valencia, Calif.). […] PKCδ protein levels were determined by immunoblot analysis. […] PKCδ activity was measured with an assay kit (Upstate Cell Signaling). […]

PKCδ [3] = assay: Immunoblot analysis of PKCδ protein levels; format: cell-based; details: 20 μM, 48 h, all cell lines tested
Method: (§5) Cell Culture and Treatment. NIH/3T3 and Balb cell lines were obtained from ATCC (American Type Culture Collection, Rockville, Md.). NIH/3T3-Ras cells were produced by stable transfection of v-Harvey ras, and selected and maintained in 0.5 mg/ml of Geneticin (Gibco BRL, Gaithersburg, Md.). Ki-v-ras-Balb (KBalb) cells were produced by stable infection of Balb with retroviral vector stocks containing v-Kirsten ras, and were selected and maintained with Geneticin. The human pancreatic tumor lines Hs 766s, BxPC-3 and MIA PaCa-2, were obtained from ATCC. All cell lines were maintained in Dulbecco Modified Eagle medium (DMEM) (Gibco BRL) supplemented with 2 mM 1-glutamine, 100 U/ml of penicillin, and 100 μg/ml of streptomycin (Gibco BRL). Media was additionally supplemented with 10% DCS (NIH/3T3, NIH/3T3-Ha-v-Ras, Balb/3T3, Ki-v-ras-Balb, and Balb-myc), or 10% FBS (BxPC-3, MIA PaCa-2). Cells were cultured at 37° C. and 5% CO2. Cell Proliferation Assay. Cell proliferation was assessed using an MTT [3-(4,5-dimethylthiazol-2-yl)-2,5-diphenyltetrazolium bromide] assay (Roche, Mannheim, Germany). […] The optical densities were quantified at a test wavelength of 550 nm and a reference wavelength of 630 nm on a multiwell spectrophotometer. siRNA Knockdown of PKCδ. siRNA duplexes (siRNAs) were obtained from Qiagen (Valencia, Calif.). […]

Balb cells = assay: MTT cell proliferation assay, Balb; format: cell-based, mouse; details: Balb (wild-type p21Ras), 48 h, 20 μM
Method: as §1, §2
(§6) Cell Culture and Treatment. NIH/3T3 and Balb cell lines were obtained from ATCC (American Type Culture Collection, Rockville, Md.). […] Cell proliferation was assessed using an MTT [3-(4,5-dimethylthiazol-2-yl)-2,5-diphenyltetrazolium bromide] assay (Roche, Mannheim, Germany). […] The optical densities were quantified at a test wavelength of 550 nm and a reference wavelength of 630 nm on a multiwell spectrophotometer. siRNA Knockdown of PKCδ. siRNA duplexes (siRNAs) were obtained from Qiagen (Valencia, Calif.). […]

PKCδ [4] = format: cell-based
Method: as §5

Hs766T cells = assay: MTT cell proliferation assay, Hs766T; format: cell-based, human; details: Hs766T (wild-type p21Ras), 48 h, 20 μM
Method: as §1, §2, §6

CN(C)CCCn1cc(C2=C(c3c[nH]c4ccccc34)C(=O)NC2=O)c2ccccc21 [Bis-1, Bisindolylmaleimide I]
cell proliferation (MTT) (KBalb cells [1]): strongly suppressed the growth
cell proliferation (MTT) (MIA PaCa-2 cells): strongly suppressed the growth

CCCCCCCCCCCCCCCCOCC(CO)OC (stereo not shown) [HMG]
cell proliferation (MTT) (KBalb cells [1]): strongly suppressed the growth
cell proliferation (MTT) (MIA PaCa-2 cells): strongly suppressed the growth

O=c1cc(N2CCOCC2)oc2c(-c3ccccc3)cccc12 [LY294002]
decrease of apoptosis induced by rottlerin (NIH/3T3 cells; NIH/3T3 p110-CAAX, 20 μM pre-treatment 30 min, then rottlerin 20 μM 60 hours): ~50%
apoptosis induced by PKCδ inhibition blocked (KBalb cells [2]; KBalb cells, pre-treatment before rottlerin 20 μM): 50%

CC(=O)c1c(O)c(C)c(O)c(Cc2c(O)c3c(c(C(=O)/C=C/c4ccccc4)c2O)OC(C)(C)C=C3)c1O [rottlerin, Rottlerin]
cell proliferation (MTT) (KBalb cells [1]): dramatically and specifically decreased the proliferation
PKCδ protein levels after rottlerin (PKCδ [3]): suppressed PKCδ levels somewhat
cell proliferation (MTT) (Balb cells): stimulated proliferation
PKCδ activity blocked (PKCδ [4]): greater than 95%
cell proliferation (MTT) (MIA PaCa-2 cells): dramatically and specifically decreased the proliferation
cell proliferation (MTT) (Hs766T cells): stimulated proliferation
apoptosis in cells expressing p21Ras effector mutants S35, G37, C40 (NIH/3T3 cells; 20 μM, 60 h, C40 greatest): stimulated apoptosis to some extent
apoptosis in cells expressing Raf or Ral-GEF effectors (NIH/3T3 cells; NIH/3T3 Raf-22W, RIF-CAAX, rottlerin 20 μM, 60 h): induced little apoptosis
apoptotic frequency (NIH/3T3 cells; NIH/3T3 with activated PI3K (p110-CAAX), rottlerin 20 μM, 60 h): 38.22%

COc1cccc(-c2cc(=O)c3ccccc3o2)c1N [PD98095]
suppression of p21Ras-dependent apoptosis (KBalb cells [2]; cells with activated p21Ras, 10 μM pre-treatment, rottlerin 20 μM, lesser degree than PI3K-inhibition): suppressed p21^Ras-dependent apoptosis to some extent

Source: patent US20090220503A1, “METHOD FOR TREATING CANCERS WITH INCREASED RAS SIGNALING” (THE TRUSTEES OF BOSTON UNIVERSITY, priority 2006, published 2009)
